Test results reported in patent US8492428B2 (priority 2005, dated 2013).
Entries after “also recorded” stand apart in the source; their conditions may differ. Like-named read-outs stand apart in the source and are kept apart here.

Key:
[1] = molecular target: endopeptidase (LC) of botulinum neurotoxin serotype A (BoNTA) (Clostridium botulinum, UniProt P0DPI0); assay: biochemical; conditions: for inhibition at 100 µM: read-out: % Inhibition at 100 μM, BoNTA LC
[2] = molecular target: endopeptidase (LC) of botulinum neurotoxin serotype B (BoNTB) (Clostridium botulinum, UniProt P10844); assay: biochemical; format: biochemical; conditions: for inhibition at 100 µM: read-out: % Inhibition at 100 μM, BoNTB LC
Chain of endopeptidase (LC) of botulinum neurotoxin serotype B (BoNTB) (P10844 2-441 limits assumed): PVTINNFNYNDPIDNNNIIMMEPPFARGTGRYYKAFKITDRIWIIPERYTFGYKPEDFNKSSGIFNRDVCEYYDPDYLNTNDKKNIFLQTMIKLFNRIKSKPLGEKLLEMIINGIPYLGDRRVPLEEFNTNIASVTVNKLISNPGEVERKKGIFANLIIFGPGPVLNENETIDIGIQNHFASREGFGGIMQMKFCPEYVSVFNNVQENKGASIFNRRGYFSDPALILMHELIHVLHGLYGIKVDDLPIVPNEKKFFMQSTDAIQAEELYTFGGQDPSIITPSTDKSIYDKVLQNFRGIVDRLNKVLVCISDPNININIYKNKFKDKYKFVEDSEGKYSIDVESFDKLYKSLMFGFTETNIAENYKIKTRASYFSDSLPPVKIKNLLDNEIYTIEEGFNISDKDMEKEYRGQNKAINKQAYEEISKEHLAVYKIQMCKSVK

[3] = molecular target: BoNTA light chain (Clostridium botulinum, UniProt P0DPI0); assay: biochemical
Chain of BoNTA light chain (P0DPI0 2-448 limits assumed): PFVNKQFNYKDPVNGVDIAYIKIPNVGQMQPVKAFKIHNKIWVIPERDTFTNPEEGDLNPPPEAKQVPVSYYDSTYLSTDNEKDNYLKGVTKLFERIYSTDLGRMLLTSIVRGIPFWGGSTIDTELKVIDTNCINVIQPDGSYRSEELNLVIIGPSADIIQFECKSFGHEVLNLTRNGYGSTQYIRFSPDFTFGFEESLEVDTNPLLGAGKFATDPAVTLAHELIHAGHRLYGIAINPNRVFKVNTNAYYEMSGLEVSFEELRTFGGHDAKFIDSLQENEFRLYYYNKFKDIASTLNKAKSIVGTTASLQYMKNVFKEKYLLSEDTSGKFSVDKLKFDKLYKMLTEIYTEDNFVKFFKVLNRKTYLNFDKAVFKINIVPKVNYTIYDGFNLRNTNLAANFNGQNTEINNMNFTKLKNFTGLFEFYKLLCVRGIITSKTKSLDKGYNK

Chain of endopeptidase (LC) of botulinum neurotoxin serotype A (BoNTA) (P0DPI0 2-448 limits assumed): as above

| SMILES | inhibition at 100 µM [1] [%] | inhibition of the endopeptidase of BoNTA, in words (comparisons) [1] | inhibition at 100 µM [2] [%] | melting point | further results |
| --- | --- | --- | --- | --- | --- |
| O=C(O)Cc1cc(C(=O)c2ccc(Cl)cc2)sc1-c1ccccc1 [Compound 1, [5-(4-Chlorobenzoyl)-2-phenylthiophene-3-yl]acetic acid] | 15 |  |  |  |  |
| O=C(Cc1cc(C(=O)c2ccc(Cl)cc2)sc1-c1ccccc1)NO [Compound 2, 2-[5-(4-Chlorobenzoyl)-2-phenylthiophene-3-yl]-N-hydroxyacetamide] | 30 | more active in inhibiting the endopeptidase than 1 | 0 |  | effect on the endopeptidase of BoNTB, in words [2]: no effect |
| Nc1cc(C(=O)c2cc(CC(=O)NO)c(-c3ccccc3)s2)ccc1I [Compound 4, 2-[5-(3-Amino-4-iodobenzoyl)-2-phenylthiophene-3-yl]-N-hydroxyacetamide] | 40 | more active in inhibiting the endopeptidase than 2 | 0 | > 170 °C (dec.) | effect on the endopeptidase of BoNTB, in words [2]: no effect |
| O=C(Cc1cc(C(=O)c2ccc(I)c([N+](=O)[O-])c2)sc1-c1ccccc1)NO [Compound 5, 2-[5-(3-Nitro-4-iodobenzoyl)-2-phenylthiophene-3-yl]-N-hydroxyacetamide] |  |  |  | 147 to 151 °C |  |
| NNC(=O)Cc1cc(C(=O)c2ccc(Br)cc2)sc1-c1ccccc1 [Compound 6, [5-(4-Bromobenzoyl)-2-phenylthiophene-3-yl]acetic acid hydrazide] |  |  |  | 157 to 161 °C |  |
| NNC(=O)Cc1cc(C(=O)c2ccc(I)c(N)c2)sc1-c1ccccc1 [Compound 7, [5-(3-Amino-4-iodobenzoyl)-2-phenylthiophene-3-yl]acetic acid hydrazide] |  |  |  | 159 to 165 °C |  |
| O=C(O)Cc1cc(C(=O)c2ccc3cc(-c4ccccc4)[nH]c3c2)sc1-c1ccccc1 [Compound 8, [2-Phenyl-5-(2-phenyl-1H-indole-6-carbonyl)thiophene-3-yl]acetic acid] |  | less potent in inhibiting the endopeptidase than 1 and 2 |  |  |  |
| O=C(Cc1cc(C(=O)c2ccc3cc(-c4ccccc4)[nH]c3c2)sc1-c1ccccc1)NO [Compound 9, N-Hydroxy-2-[2-phenyl-5-(2-phenyl-1H-indole-6-carbonyl)thiophene-3-yl]acetamide] |  | less potent in inhibiting the endopeptidase than 1 and 2 |  |  |  |
| Cl.NCCCCn1c(-c2ccccc2)cc2ccc(C(=O)c3cc(CC(=O)NO)c(-c4ccccc4)s3)cc21 [Compound 12, 2-{5-[1-(4-Aminobutyl)-2-phenyl-1H-indole-6-carbonyl]-2-phenylthiophene-3-yl}-N-hydroxyacetamide hydrochloride] | 96 |  | 0 |  | effect of adding more zinc on the inhibition of BoNTA [1]: no effect; inhibition at 15 µM ([1]; read-out: % inhibition of BoNTA at 15 μM): 48%; effect on the endopeptidase of BoNTB, in words ([2]; hydrochloride): no effect; also recorded: did not inhibit; Ki [3]: 12 ± 2.6 µM |
